Measured values as given in patent US4695589A, “Alpha-(aminoalkyl-4-hydroxy-3-(alkylthio)benzenemethanols” (Sterling Drug Inc., priority 1983, dated 1987).
Where a name gives a salt, the structure may show the parent alone. Read-outs that look alike come from different tables or passages of the source.

Experiments:
[1] = tested on: heart rate increase elicited by isoproterenol in the pentobarbitalized dog; assay: β-adrenergic blocking activity in the pentobarbitalized dog; assay type: in vivo; conditions: for ED50 / inhibition at 0.1 mg/kg / inhibition at 1 mg/kg: Canis lupus familiaris; for ED50 / Adrenergic Activity Dog β-blockade AED50: approximate intravenous dose causing 50% inhibition of isoproterenol-elicited heart rate increase; for ED50: read-out: Adrenergic Activity Dog β-blockade AED50; for inhibition at 0.1 mg/kg: 0.1 mg./kg. intravenous; for inhibition at 0.1 mg/kg / inhibition at 1 mg/kg: read-out: Actual percentage inhibition of heart rate increase above control level at the indicated dose; for inhibition at 1 mg/kg: 1.0 mg./kg. intravenous
Method: The β-adrenergic blocking activity was determined in the pentobarbitalized dog as judged by the ability of the test compound to inhibit the elevation is heart rate elicited by a 0.5 mcg./kg. i.v. injection of isoproterenol.
^e AED50 = approximate intravenous dose required to cause 50%
inhibition of the heart rate increase elicited by isoproterenol in the
^h Actual percentage inhibition of heart rate increase above control
level observed at the indicated dose.

[2] = tested on: hind limb vasculature of the anesthetized dog; assay: Vasodilator activity, dog-leg perfusion; assay type: in vivo; conditions: approximate intraarterial dose causing 50% reduction in perfusion pressure in hind limb; for ED50: Canis lupus familiaris, read-out: Vasodilator Activity Dog-Leg Perfusion AED50
Text: (§1) Vasodilator activity was judged on the basis of observed reduction in perfusion pressure in the hind limb vasculature of the anesthetized dog determined according to the procedure described by Jandhyala et al., European J. Pharm. 17, 357 (1972), and also on the basis of percent reduction in perfusion pressure as measured in the isolated rabbit ear artery according to the method described by De LaLande et al., Aust. J. Exp. Biol. Med. Sci. 43, 639 (1965).
^c AED50 =approximate intraarterial dose required to cause a 50%
reduction in perfusion pressure in the hind limb of the anesthetized dog.

[3] = tested on: unanesthetized spontaneous hypertensive rat; assay: Antihypertensive activity, single oral medication in the spontaneous hypertensive rat (SH Rat); assay type: in vivo; conditions: for ED (40 mm Hg): Rattus norvegicus, single oral dose required to induce a 40 mm average reduction in systolic blood pressure, read-out: Antihypertensive Activity SH Rat AHD40 mg./kg. P.O.; for Actual reduction in blood pressure observed at the indicated dose: SH rat; for lower blood pressure: at 50 mg./kg.
Method: Antihypertensive activity was determined on the basis of the observed reduction in systolic blood pressure measured according to the method of H. Kersten et al., J. Lab. and Clin. Med. 32, 1090 (1947) following a single oral medication in the unanesthetized spontaneous hypertensive rat described by Okamato et al., Japan Circulation J. 27, 282 (1963).
^a AHD40 = single oral dose required to induce a 40 mm average
reduction in systolic blood pressure in the unanesthetized spontaneous
^f Actual reduction in blood pressure (in mm Hg) observed at the […]

[4] = tested on: isolated rabbit ear artery; assay: Vasodilator activity, isolated rabbit ear artery perfusion pressure; conditions: Oryctolagus cuniculus, read-out: Rabbit Ear Artery vasodilation (percentage reduction in perfusion pressure); for inhibition at 10 µM: 1 × 10^-5 M; for inhibition at 20 µM: 2 × 10^-5 M; for inhibition at 50 µM: 5 × 10^-5 M
Text: as §1
^d Vasodilation is expressed as the percentage reduction in perfusion
pressure from the control level at the indicated molar dose.

[5] = tested on: histamine-induced bronchoconstriction in the dog; assay: Block of histamine-induced bronchoconstriction in the dog (β-adrenergic stimulant activity); assay type: in vivo
[6] = tested on: unanesthetized trained renal hypertensive dog; assay: Antihypertensive activity, repeated oral medication in the renal hypertensive dog; assay type: in vivo; conditions: for minimal effective dose: Canis lupus familiaris, minimum repeated oral daily dose for sustained lowering of blood pressure of 10% or greater, tid, read-out: Antihypertensive Activity Renal Hypertensive Dog MED10 mg./kg. tid
Text: Antihypertensive activity was also judged on the basis of sustained reduction of blood pressure observed in the unanesthetized trained renal hypertensive dog following repeated oral medication according to the procedure described by Lape et al., Arch. Int. Pharmacodyn. 160, 342 (1966).
^b MED10 = minimum repeated oral daily dose required to effect a
sustained lowering of blood pressure of 10% or greater in the
unanesthetized trained renal hypertensive dog.
^g Actual precentage reduction in blood pressure observed at the […]

[7] = tested on: ouabain-induced arrhythmia in dogs; assay: Ouabain-induced arrhythmia conversion
Method: The latter was determined in vivo and efficacy was judged on the ability of the test compound to convert to normal rhythm the arrhythmia induced by barium ion or ouabain intoxication.
Adult mongrel dogs of either sex, after fasting for 16 to 20 hours, were anesthetized with 35 mg./kg. Na-pentobarbital i.v. and tied supine on an operating table. A patent airway was provided by inserting an endotracheal cannula, and the animal respired spontaneously. A femoral vein was double cannulated with one cannula for injection and the other as a site for ouabain infusion. The ipsilateral femoral artery was cannulated for blood pressure measurement. Na-pentobarbital supplements were given i.v. as needed.
Statham P23A blood pressure transducers were used to measure blood pressure, and electrocardiograms (lead II or V1) were taken with monopolar pin electrodes. Both parameters were printed out on a Grass polygraph. Each dog was given 36 mcg./kg. ouabain i.v. over 1 minute (the solution contained 50 mcg./ml. ouabain in isotonic saline) followed by a constant ouabain infusion (0.6 mcg./kg./min.) starting 5 minutes later. The infusion solution was prepared so that the appropriate dose per minute was delivered in 0.5 ml. […]
All ECG interval and duration measurements were made on lead II with a chart speed of 100 mm./sec. […] Blood pressure was measured using a sensitivity of 10 mm. […]

COc1ccc(CCC(C)NCC(O)c2ccc(O)c(SC)c2)cc1 (single isomer, unassigned) [Example 13A] was tested, and the ED50 ([1]; iv) was over 0.1 mg/kg, the inhibition at 0.1 mg/kg [1] was 14% and the ED50 [2] was 0.5 mg/kg.
In the case of COc1ccc(CCC(C)NCC(O)c2ccc(O)c(SC)c2)cc1 (single isomer, unassigned) [Example 13B], the “Adrenergic Activity Dog β-blockade AED50” value [1] is reported as 0.1 mg/kg and the “Vasodilator Activity Dog-Leg Perfusion AED50” value [2] is reported as 0.5 mg/kg.
For CSc1cc(C(O)CNC(C)CCc2ccc(O)cc2)ccc1O (single isomer, unassigned) [Example 40B, 4-hydroxy-α-<{[3-(4-hydroxyphenyl)-1-methylpropyl]amino}-methyl>-3-(methylthio)benzenemethanol cyclohexanesulfamate], the ED50 ([1]; iv) was 0.1 mg/kg, the ED (40 mm Hg) [3] was over 50 mg/kg and the “Actual reduction in blood pressure observed at the indicated dose” value (“Actual reduction” below) ([3]; 50.0 mg./kg. P.O.) was -9 mm Hg.
Compound COc1ccc(CC(C)NCC(O)c2ccc(OC(C)=O)c(SC)c2)cc1 (stereo not drawn) [Example 2, 4-hydroxy-α-<{[2-(4-methoxyphenyl-1-methylethyl]amino}methyl>-3-(methylthio)benzenemethanol 4-aceetate hydrochloride] has an inhibition at 1 mg/kg [1] of 60%, an ED50 [1] of under 1 mg/kg and an ED50 [2] of 0.5 mg/kg. For the same compound, the inhibition at 10 µM [4] was 50%, the ED (40 mm Hg) [3] was 10 mg/kg and the β-adrenergic stimulant activity [5] was “ability to block histamine-induced bronchoconstriction”.
COc1ccc(CC(C)NCC(O)c2ccc(O)c(SC)c2)cc1 (stereo not drawn) [Example 3, 4-hydroxy-α-<{[2-(4-methoxyphenyl)-1-methylethyl]amino}methyl>-3-(methylthio)benzenemethanol acetate salt] was tested, and the ED50 [1] was 0.1 mg/kg, the ED50 [2] was 0.5 mg/kg and the inhibition at 20 µM [4] was 56%. The ED (40 mm Hg) [3] was 20 mg/kg.
COc1ccc(CCC(C)NCC(O)c2ccc(O)c(SC)c2)cc1 (stereo not drawn) [Example 5, 4-hydroxy-α-<{[3-(4-methoxyphenyl)-1-methylpropyl]amino}methyl>-3-(methylthio)benzenemethanol acetate salt] was tested, and the minimal effective dose [6] was over 2.5 mg/kg, the “Actual percentage reduction in blood pressure observed at the indicated dose” value ([6]; renal hypertensive dog, 2.5 mg./kg. tid) was 0% and the ED50 ([1]; iv) was 0.1 mg/kg. The ED50 [2] was 0.5 mg/kg, the inhibition at 100 µM ([4]; 1 × 10^-4 M) was 55% and the ED (40 mm Hg) [3] was 15 mg/kg. For the same compound, the lowers blood pressure ([3]; at a dose of 15 mg./kg.) was 40 mm and the “potency relative to the reference compounds” value ([3]; at less than one-third the dose of Reference Compounds I and II) was “twice as potent”.
COc1ccc(CCC(C)NCC(O)c2ccc(O)c(SC)c2)cc1 (stereo not drawn) [Example 12B, 4-hydroxy-α-<{[3-(4-methoxyphenyl)-1-methylpropyl]amino}methyl>3-(methylthio)benzenemethanol acetate salt] was tested, and the inhibition at 0.1 mg/kg [1] was 45% and the “Adrenergic Activity Dog β-blockade AED50” value ([1]; acetate salt) was over 0.1 mg/kg.
For COc1ccc(CCC(C)NCC(O)c2ccc(O)c(SC)c2)cc1 (stereo not drawn) [Example 12C, 4-hydroxy-α<{[3-(4-methoxyphenyl)-1-methylpropyl]amino}methyl>-3-(methylthio)benzenemethanol acetate salt], the “Adrenergic Activity Dog β-blockade AED50” value ([1]; acetate salt) was about 0.10 mg/kg.
With COc1ccc(CCC(C)NCC(O)c2ccc(OC(=O)c3ccccc3)c(SC)c2)cc1 (stereo not drawn) [Example 15A, 4-hydroxy-α-<{[3-(4-methoxyphenyl)-1-methylpropyl]amino}methyl>-3-(methylthio)benzenemethanol 4-benzoate acetate salt] the ED (40 mm Hg) [3] was over 50 mg/kg and the “Actual reduction” value ([3]; 50.0 mg./kg. P.O.) was -10 mm Hg.
In the case of CC(=O)O.CSc1cc(C(O)CNC(C)(C)Cc2ccccc2)ccc1O (stereo not drawn) [Example 20, α-{[(1,1-dimethyl-2-phenylethyl)amino]methyl}-4-hydroxy-3-(methylthio)benzenemethanol acetate salt], the inhibition at 1 mg/kg [1] is reported as 56%, the ED50 [1] is reported as under 1 mg/kg and the ED50 [2] is reported as 0.5 mg/kg. It also gave an inhibition at 10 µM [4] of 71% and an ED (40 mm Hg) [3] of about 50 mg/kg.
With CSc1cc(C(O)CNC(C)Cc2ccccc2)ccc1O (stereo not drawn) [Example 22, 4-hydroxy-α-{[(1-methyl-3-phenylethyl)amino]methyl}-3-(methylthio)benzenemethanol acetate salt] the inhibition at 1 mg/kg [1] was 60%, the ED50 [1] was under 1 mg/kg and the ED50 [2] was 0.5 mg/kg. It also gave an inhibition at 20 µM [4] of 33% and an ED (40 mm Hg) [3] of 35 mg/kg.
For COc1ccc(CC(C)NC(C)C(O)c2ccc(O)c(SC)c2)cc1 (stereo not drawn) [Example 24, 4-hydroxy-α-<{[2-(4-methoxyphenyl)-1-methylethyl]amino}ethyl>-3-(methylthio)benzenemethanol acetate salt], the ED (40 mm Hg) [3] was over 20 mg/kg and the “Actual reduction” value ([3]; 20.0 mg./kg. P.O.) was -23 mm Hg.
For CC(=O)O.CSc1cc(C(O)CNC(C)(C)CCc2ccccc2)ccc1O (stereo not drawn) [Example 28, α-{[(1,1-dimethyl-3-phenylpropyl)amino]methyl}-4-hydroxy-3-(methylthio)benzenemethanol acetate salt], the ED50 ([1]; iv) was under 1 mg/kg, the inhibition at 1 mg/kg [1] was 100% and the ED50 [2] was 0.5 mg/kg. It also gave an inhibition at 50 µM [4] of 70% and an ED (40 mm Hg) [3] of about 10 mg/kg.
COc1ccc(CCC(C)(C)NCC(O)c2ccc(O)c(SC)c2)cc1 (stereo not drawn) [Example 30, α-<{[1,1-dimethyl-3-(4-methoxyphenyl)propyl]amino}methyl>-4-hydroxy-3-(methylthio)benzenemethanol acetate salt] was tested, and the minimal effective dose [6] was 0.5 mg/kg, the ED50 ([1]; iv) was under 1 mg/kg and the inhibition at 1 mg/kg [1] was 72%. It also gave an ED50 [2] of 0.5 mg/kg, an inhibition at 90 µM ([4]; 9 × 10^-5 M) of 50% and an ED (40 mm Hg) [3] of 20 mg/kg.
In the case of CSc1cc(C(O)CNC(C)CCc2ccccc2)ccc1O (stereo not drawn) [Example 32, 4-hydroxy-α-{[(1-methyl-3-phenylpropyl)amino]methyl}-3-methylthio)benzenemethanol acetate salt], the ED50 ([1]; iv) is reported as 0.1 mg/kg, the ED50 [2] is reported as 0.5 mg/kg and the inhibition at 50 µM [4] is reported as 81%. For the same compound, the ED (40 mm Hg) [3] was 5 mg/kg.
In the case of COc1ccc(CCCC(C)NCC(O)c2ccc(O)c(SC)c2)cc1 (stereo not drawn) [Example 36, 4-hydroxy-α-<{[4-(4-methoxyphenyl)1-methylbutyl]amino}methyl>-3-(methylthio)benzenemethanol acetate salt], the ED (40 mm Hg) [3] is reported as over 50 mg/kg and the “Actual reduction” value ([3]; 50.0 mg./kg. P.O.) is reported as -17 mm Hg.
COc1cc(CCNCC(O)c2ccc(O)c(SC)c2)cc(OC)c1OC (stereo not drawn) [Example 51, 4-hydroxy-3-(methylthio)-α-<{[2-(3,4,5-trimethoxyphenyl)ethylamino}methyl>benzenemethanol hydrochloride] was tested, and the “toxic dose in the ouabain test” value ([7]; anesthetized dog) was 2.5×10^-5 Mg/kg and the “activity in the ouabain test” value ([7]; below 2.5×10^-5 Mg/kg.) was “inactive”.
COc1ccc(CCC(C)NCC(O)c2ccc(SC)c(O)c2)cc1 (stereo not drawn) [Ref Cpd I, 3-hydroxy-α-<{[3-(4-methoxyphenyl)-1-methylpropyl]amino}methyl>-4-(methylthio)benzenemethanol acetate salt, reference compound] was tested, and the ED (40 mm Hg) [3] was over 50 mg/kg, the “Actual reduction” value ([3]; 50.0 mg./kg. P.O.) was -20 mm Hg and the lower blood pressure [3] was 20 mm.
For COc1ccc(CCC(C)NCC(O)c2ccc(OC)c(SC)c2)cc1 (stereo not drawn) [Ref Cpd II, 4-methoxy-α-<{[3-(4-methoxyphenyl)-1-methylpropyl]amino}methyl>-3-(methylthio)benzenemethanol hydrochloride, reference compound], the ED50 ([1]; iv) was 0.07 mg/kg, the ED (40 mm Hg) [3] was over 50 mg/kg and the “Actual reduction” value ([3]; 50.0 mg./kg. P.O.) was -24 mm Hg. For the same compound, the lower blood pressure [3] was 24 mm.
